Measured values taken from patent publication US20240101546A1, “HETEROARYL-ACETYLENES, PHARMACEUTICAL COMPOSITIONS THEREOF, AND THEIR THERAPEUTIC APPLICATIONS” (Eubulus Biotherapeutics Inc., priority 2020, published 2024).

Test system: lung cancer cell line NCI-H82
Test: Cell proliferation assay, NCI-H82 (CELL-TITER GLO)
Assay type: cell-based
Conditions: Homo sapiens, NCI-H82, 72 h, NCI-H82 cells, 72 h incubation, cell viability by CELL-TITER GLO, top concentration 1 μM; read-out: EC50, Inhibition of NCl-H82 Cell Proliferation
Experimental: The activity of a compound was determined in a cell proliferation assay using the lung cancer cell line NCI-H82. Cells (1,000 cells per well) were cultured with RPMI1640 in a 384-well tissue culture plate. After incubated overnight, the compound was added at predetermined concentrations, starting with 1 μM and followed by a 3-fold serial dilution. After the cells were incubated for 72 h, cell viability was determined using a CELL-TITER GLO assay. The CELL-TITER GLO reagent (25 μL) was added to each well and the luminescence was measured by a multimode microplate reader after a brief period of shaking. EC50 values were determined for the compound. The results are summarized in Table 1, wherein A represents a value no greater than 200 nM, B represents a value greater than 200 nM but no greater than 1 μM, C represents a value greater than 1 μM but no greater than […], and D represents a value greater than 5 μM.

Compound	EC50 [nM]
C#Cc1nc(NC(=O)N[C@@H](CO)c2ccc(-c3cc(F)cnc3C3(C#N)CC3)cc2)cs1 [Compound A64, (R)-1-(1-(4-(2-(1-Cyanocyclopropyl)-5-fluoropyridin-3-yl)phenyl)-2-hydroxy-ethyl)-3-(2-ethynylthiazol-4-yl)urea]	≤ 200
C#Cc1nc(NC(=O)N[C@@H](CO)c2ccc(-c3cccnc3C3(C#N)CC3)c(Cl)c2)cs1 [Compound A65, (R)-1-(1-(3-Chloro-4-(2-(1-cyanocyclopropyl)pyridin-3-yl)phenyl)-2-hydroxy-ethyl)-3-(2-ethynylthiazol-4-yl)urea]	≤ 200
C#Cc1nc(NC(=O)N[C@H](CO)c2ccc(-c3cccnc3C3(C#N)CC3)c(Cl)c2)cs1 [Compound A66, (S)-1-(1-(3-Chloro-4-(2-(1-cyanocyclopropyl)pyridin-3-yl)phenyl)-2-hydroxy-ethyl)-3-(2-ethynylthiazol-4-yl)urea]	≤ 200
C#Cc1nc(NC(=O)N(C)[C@@H](CO)c2ccc(-c3cccnc3C3(C#N)CC3)c(Cl)c2)cs1 [Compound A67, (R)-1-(1-(3-Chloro-4-(2-(1-cyanocyclopropyl)pyridin-3-yl)phenyl)-2-hydroxy-ethyl)-3-(2-ethynylthiazol-4-yl)-1-methylurea]	≤ 200
C#Cc1nc(NC(=O)N[C@@H](CO)c2ccc(-c3cccnc3C3(C#N)CC3)c(F)c2)cs1 [Compound A68, (R)-1-(1-(4-(2-(1-Cyanocyclopropyl)pyridin-3-yl)-3-fluorophenyl)-2-hydroxy-ethyl)-3-(2-ethynylthiazol-4-yl)urea]	≤ 200
C#Cc1nc(NC(=O)N[C@@H](COC(N)=O)c2ccc(-c3cccnc3C3(C#N)CC3)c(Cl)c2)cs1 [Compound A69, (R)-2-(3-Chloro-4-(2-(1-cyanocyclopropyl)pyridin-3-yl)phenyl)-2-(3-(2-ethynyl-thiazol-4-yl)ureido)ethyl carbamate]	≤ 200
C#Cc1nc(NC(=O)N(C)[C@@H](COC(N)=O)c2ccc(-c3cccnc3C3(C#N)CC3)c(Cl)c2)cs1 [Compound A70, (R)-2-(3-Chloro-4-(2-(1-cyanocyclopropyl)pyridin-3-yl)phenyl)-2-(3-(2-ethynyl-thiazol-4-yl)-1-methylureido)ethyl carbamate]	≤ 200
C#Cc1nnc(NC(=O)N[C@@H](CO)c2ccc(-c3cccnc3C3(C#N)CC3)c(Cl)c2)s1 [Compound A71, (R)-1-(1-(3-Chloro-4-(2-(1-cyanocyclopropyl)pyridin-3-yl)phenyl)-2-hydroxy-ethyl)-3-(5-ethynyl-1,3,4-thiadiazol-2-yl)urea]	≤ 200
C#Cc1nc(NC(=O)N[C@@H](CS(C)(=O)=O)c2ccc(-c3cccnc3C3(C#N)CC3)c(Cl)c2)cs1 [Compound A72, (R)-1-(1-(3-Chloro-4-(2-(1-cyanocyclopropyl)pyridin-3-yl)phenyl)-2-(methyl-sulfonyl)ethyl)-3-(2-ethynylthiazol-4-yl)urea]	≤ 200
C#Cc1nc(NC(=O)N[C@@H](CS(N)(=O)=O)c2ccc(-c3cccnc3C3(C#N)CC3)c(Cl)c2)cs1 [Compound A73, (R)-2-(3-Chloro-4-(2-(1-cyanocyclopropyl)pyridin-3-yl)phenyl)-2-(3-(2-ethynyl-thiazol-4-yl)ureido)ethanesulfonamide]	≤ 200
C#Cc1nc(NC(=O)N[C@@H](C(=O)NC)c2ccc(-c3cccnc3C3(C#N)CC3)c(Cl)c2)cs1 [Compound A74, (R)-2-(3-Chloro-4-(2-(1-cyanocyclopropyl)pyridin-3-yl)phenyl)-2-(3-(2-ethynyl-thiazol-4-yl)ureido)-N-methylacetamide]	≤ 200
C#Cc1nc(NC(=O)N[C@@H](CO)c2ccc(-c3ccc(F)cc3C3(C#N)CC3)cn2)cs1 [Compound A75, (R)-1-(1-(5-(2-(1-Cyanocyclopropyl)-4-fluorophenyl)pyridin-2-yl)-2-hydroxy-ethyl)-3-(2-ethynylthiazol-4-yl)urea]	≤ 200
C#Cc1nc(NC(=O)N[C@@H](COC(N)=O)c2ccc(-c3ccc(F)cc3C3(C#N)CC3)cn2)cs1 [Compound A76, (R)-2-(5-(2-(1-Cyanocyclopropyl)-4-fluorophenyl)pyridin-2-yl)-2-(3-(2-ethynyl-thiazol-4-yl)ureido)ethyl carbamate]	≤ 200
C#Cc1nc(NC(=O)N[C@@H](CO)c2ccc(-c3cc(F)ccc3C3(C#N)CC3)cn2)cs1 [Compound A77, (R)-1-(1-(5-(2-(1-Cyanocyclopropyl)-5-fluorophenyl)pyridin-2-yl)-2-hydroxyethyl)-3-(2-ethynylthiazol-4-yl)urea]	≤ 200
C#Cc1nc(NC(=O)N[C@@H](CO)c2ccc(-c3c(F)cccc3C3(C#N)CC3)cn2)cs1 [Compound A78, (R)-1-(1-(5-(2-(1-Cyanocyclopropyl)-6-fluorophenyl)pyridin-2-yl)-2-hydroxy-ethyl)-3-(2-ethynylthiazol-4-yl)urea]	≤ 200

Now from value to compound:

EC50 [nM]	Compound
≤ 200	C#Cc1nc(NC(=O)N[C@@H](CO)c2ccc(-c3c(F)cc(F)cc3C3(C#N)CC3)cn2)cs1 [Compound A79, (R)-1-(1-(5-(2-(1-Cyanocyclopropyl)-4,6-difluorophenyl)pyridin-2-yl)-2-hydroxyethyl)-3-(2-ethynylthiazol-4-yl)urea]
≤ 200	C#Cc1nc(NC(=O)N[C@@H](CO)c2ccc(-c3ccccc3C3CC3(F)F)cn2)cs1 (stereo partly drawn) [Compound A80, 1-((1R)-1-(5-(2-(2,2-Difluorocyclopropyl)phenyl)pyridin-2-yl)-2-hydroxyethyl)-3-(2-ethynylthiazol-4-yl)urea]
≤ 200	C#Cc1nc(NC(=O)N[C@@H](CO)c2ccc(-c3ccc(F)cc3C3CC3(F)F)cn2)cs1 (stereo partly drawn) [Compound A81, 1-((1R)-1-(5-(2-(2,2-Difluorocyclopropyl)-4-fluorophenyl)pyridin-2-yl)-2-hydroxyethyl)-3-(2-ethynylthiazol-4-yl)urea]
≤ 200	C#Cc1nc(NC(=O)N(C)[C@@H](CO)c2ccc(-c3ccc(F)cc3C3CC3(F)F)cn2)cs1 (stereo partly drawn) [Compound A82, 1-((1R)-1-(5-(2-(2,2-Difluorocyclopropyl)-4-fluorophenyl)pyridin-2-yl)-2-hydroxyethyl)-3-(2-ethynylthiazol-4-yl)-1-methylurea]
≤ 200	C#Cc1nc(NC(=O)N[C@@H](COC(N)=O)c2ccc(-c3ccc(F)cc3C3CC3(F)F)cn2)cs1 (stereo partly drawn) [Compound A83, (2R)-2-(5-(2-(2,2-Difluorocyclopropyl)-4-fluorophenyl)pyridin-2-yl)-2-(3-(2-ethynylthiazol-4-yl)ureido)ethyl carbamate]
≤ 200	C#Cc1nc(NC(=O)N(C)[C@@H](COC(N)=O)c2ccc(-c3ccc(F)cc3C3CC3(F)F)cn2)cs1 (stereo partly drawn) [Compound A84, (2R)-2-(5-(2-(2,2-Difluorocyclopropyl)-4-fluorophenyl)pyridin-2-yl)-2-(3-(2-ethynylthiazol-4-yl)-1-methylureido)ethyl carbamate]
≤ 200	C#Cc1nnc(NC(=O)N[C@@H](CO)c2ccc(-c3ccc(F)cc3C3CC3(F)F)cn2)s1 (stereo partly drawn) [Compound A85, 1-((1R)-1-(5-(2-(2,2-Difluorocyclopropyl)-4-fluorophenyl)pyridin-2-yl)-2-hydroxyethyl)-3-(5-ethynyl-1,3,4-thiadiazol-2-yl)urea]
≤ 200	C#Cc1nnc(NC(=O)N(C)[C@@H](CO)c2ccc(-c3ccc(F)cc3C3CC3(F)F)cn2)s1 (stereo partly drawn) [Compound A86, 1-((1R)-1-(5-(2-(2,2-Difluorocyclopropyl)-4-fluorophenyl)pyridin-2-yl)-2-hydroxyethyl)-3-(5-ethynyl-1,3,4-thiadiazol-2-yl)-1-methylurea]
≤ 200	C#Cc1nnc(NC(=O)N[C@@H](COC(N)=O)c2ccc(-c3ccc(F)cc3C3CC3(F)F)cn2)s1 (stereo partly drawn) [Compound A87, (2R)-2-(5-(2-(2,2-Difluorocyclopropyl)-4-fluorophenyl)pyridin-2-yl)-2-(3-(5-ethynyl-1,3,4-thiadiazol-2-yl)ureido)ethyl carbamate]
≤ 200	C#Cc1nc(NC(=O)N[C@@H](CO)c2ccc(-c3cccc(N4CCCC4)n3)cc2)cs1 [Compound A88, (R)-1-(2-Ethynylthiazol-4-yl)-3-(2-hydroxy-1-(4-(6-(pyrrolidin-1-yl)pyridin-2-yl)phenyl)ethyl)urea]
≤ 200	C#Cc1nc(NC(=O)N[C@@H](CO)c2ccc(-c3cccc(N4CCCC4)n3)cn2)cs1 [Compound A89, (R)-1-(2-Ethynylthiazol-4-yl)-3-(2-hydroxy-1-(6-(pyrrolidin-1-yl)-[2,3′-bipyridin]-6′-yl)ethyl)urea]
≤ 200	C#Cc1ncc(NC(=O)N[C@@H](COC(N)=O)c2ccc(-c3cccc(N4CCCC4)n3)cn2)s1 [Compound A90, (R)-2-(3-(2-Ethynylthiazol-5-yl)ureido)-2-(6-(pyrrolidin-1-yl)-[2,3′-bipyridin]-6′-yl)ethyl carbamate]
≤ 200	C#Cc1nc(NC(=O)N(C)[C@@H](CO)c2ccc(-c3cccc(N4CCCC4)n3)cn2)cs1 [Compound A91, (R)-3-(2-Ethynylthiazol-4-yl)-1-(2-hydroxy-1-(6-(pyrrolidin-1-yl)-[2,3′-bipyridin]-6′-yl)ethyl)-1-methylurea]
≤ 200	C#Cc1nc(NC(=O)N(C)[C@@H](COC(N)=O)c2ccc(-c3cccc(N4CCCC4)n3)cn2)cs1 [Compound A92, (R)-2-(3-(2-Ethynylthiazol-4-yl)-1-methylureido)-2-(6-(pyrrolidin-1-yl)-[2,3′-bipyridin]-6′-yl)ethyl carbamate]
≤ 200	C#Cc1nnc(NC(=O)N[C@@H](CO)c2ccc(-c3cccc(N4CCCC4)n3)cc2)s1 [Compound A93, (R)-1-(5-Ethynyl-1,3,4-thiadiazol-2-yl)-3-(2-hydroxy-1-(4-(6-(pyrrolidin-1-yl)-pyridin-2-yl)phenyl)ethyl)urea]
